Tests used:
Experiment in all cases: relative viability (nuclei count vs DMSO), 5 days (fraction); higher = more cells survive
NCI-H650 = system: NCI-H650
In short: (§1)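 Lung cancer cell lines in 1536-well plates were dosed by pin tool the day after seeding, either with one drug alone or with a fixed anchor-drug dose plus five library-drug doses (not always all listed) in √10 steps. After 5 days, cells were fixed and their nuclei stained in one step (final 0.05% Triton X-100, 1% formaldehyde, 1 ug/ml Hoechst), then counted on 4× images. Relative viability is the nuclei count in treated wells divided by that in vehicle wells. Values are medians of duplicate plates.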

NCI-H1915 = system: NCI-H1915
In short: as §1

201T = system: 201T
In short: as §1

LCLC-97TM1 = system: LCLC-97TM1
In short: as §1

NCI-H3122 = system: NCI-H3122
In short: as §1

NCI-H1944 = system: NCI-H1944
In short: as §1

NCI-H1563 = system: NCI-H1563
In short: as §1

NCI-H838 = system: NCI-H838
In short: as §1

SW 1573 = system: SW 1573
In short: as §1

NCI-H1651 = system: NCI-H1651
In short: as §1

NCI-H2347 = system: NCI-H2347
In short: as §1

BEN = system: BEN
In short: as §1

HOP-62 = system: HOP-62
In short: as §1

NCI-H1395 = system: NCI-H1395
In short: as §1

HCC-78 = system: HCC-78
In short: as §1

LOU-NH91 = system: LOU-NH91
In short: as §1

NCI-H2126 = system: NCI-H2126
In short: as §1

NCI-H1793 = system: NCI-H1793
In short: as §1

SK-LU-1 = system: SK-LU-1
In short: as §1

NCI-H1355 = system: NCI-H1355
In short: as §1

CAL-12T = system: CAL-12T
In short: as §1

NCI-H322M = system: NCI-H322M
In short: as §1

Structure (SMILES): CCNC(=O)c1noc(-c2cc(C(C)C)c(O)cc2O)c1-c1ccc(CN2CCOCC2)cc1 [Luminespib] + CS(=O)(=O)CCNCc1ccc(-c2ccc3ncnc(Nc4ccc(OCc5cccc(F)c5)c(Cl)c4)c3c2)o1 [Lapatinib] (partner 2 µM)
- relative viability (NCI-H650; first compound 0.002 µM): 0.888
- relative viability (NCI-H650; first compound 0.006325 µM): 0.838
- relative viability (NCI-H650; first compound 0.02 µM): 0.507
- relative viability (NCI-H650; first compound 0.06325 µM): 0.0944
- relative viability (NCI-H650; first compound 0.2 µM): 0.149
- relative viability (NCI-H1915; first compound 0.002 µM): 0.943
- relative viability (NCI-H1915; first compound 0.006325 µM): 0.957
- relative viability (NCI-H1915; first compound 0.02 µM): 0.932
- relative viability (NCI-H1915; first compound 0.06325 µM): 0.99
- relative viability (NCI-H1915; first compound 0.2 µM): 0.284
- relative viability (201T; first compound 0.002 µM): 1.03
- relative viability (201T; first compound 0.006325 µM): 0.961
- relative viability (201T; first compound 0.02 µM): 0.878
- relative viability (201T; first compound 0.06325 µM): 1.02
- relative viability (201T; first compound 0.2 µM): 0.986
- relative viability (LCLC-97TM1; first compound 0.002 µM): 1.33
- relative viability (LCLC-97TM1; first compound 0.006325 µM): 0.759
- relative viability (LCLC-97TM1; first compound 0.02 µM): 0.318
- relative viability (LCLC-97TM1; first compound 0.06325 µM): 0.197
- relative viability (LCLC-97TM1; first compound 0.2 µM): 0.139
- relative viability (NCI-H3122; first compound 0.002 µM): 1.09
- relative viability (NCI-H3122; first compound 0.006325 µM): 0.951
- relative viability (NCI-H3122; first compound 0.02 µM): 1.02
- relative viability (NCI-H3122; first compound 0.06325 µM): 0.24
- relative viability (NCI-H3122; first compound 0.2 µM): 0.168
- relative viability (NCI-H1944; first compound 0.002 µM): 0.869
- relative viability (NCI-H1944; first compound 0.006325 µM): 0.724
- relative viability (NCI-H1944; first compound 0.02 µM): 0.445
- relative viability (NCI-H1944; first compound 0.06325 µM): 0.41
- relative viability (NCI-H1944; first compound 0.2 µM): 0.407
- relative viability (NCI-H1563; first compound 0.002 µM): 0.963
- relative viability (NCI-H1563; first compound 0.006325 µM): 0.818
- relative viability (NCI-H1563; first compound 0.02 µM): 0.616
- relative viability (NCI-H1563; first compound 0.06325 µM): 0.474
- relative viability (NCI-H1563; first compound 0.2 µM): 0.528
- relative viability (NCI-H838; first compound 0.002 µM): 1.05
- relative viability (NCI-H838; first compound 0.006325 µM): 0.911
- relative viability (NCI-H838; first compound 0.02 µM): 0.328
- relative viability (NCI-H838; first compound 0.06325 µM): 0.103
- relative viability (NCI-H838; first compound 0.2 µM): 0.0976
- relative viability (SW 1573; first compound 0.002 µM): 1.2
- relative viability (SW 1573; first compound 0.006325 µM): 1.14
- relative viability (SW 1573; first compound 0.02 µM): 0.711
- relative viability (SW 1573; first compound 0.06325 µM): 0.439
- relative viability (SW 1573; first compound 0.2 µM): 0.127
- relative viability (NCI-H1651; first compound 0.002 µM): 0.902
- relative viability (NCI-H1651; first compound 0.006325 µM): 0.803
- relative viability (NCI-H1651; first compound 0.02 µM): 0.561
- relative viability (NCI-H1651; first compound 0.06325 µM): 0.193
- relative viability (NCI-H1651; first compound 0.2 µM): 0.161
- relative viability (NCI-H2347; first compound 0.002 µM): 0.941
- relative viability (NCI-H2347; first compound 0.02 µM): 0.876
- relative viability (NCI-H2347; first compound 0.06325 µM): 0.758
- relative viability (NCI-H2347; first compound 0.2 µM): 0.88
- relative viability (BEN; first compound 0.002 µM): 0.717
- relative viability (BEN; first compound 0.006325 µM): 0.536
- relative viability (BEN; first compound 0.02 µM): 0.363
- relative viability (BEN; first compound 0.06325 µM): 0.211
- relative viability (BEN; first compound 0.2 µM): 0.237
- relative viability (HOP-62; first compound 0.002 µM): 1.13
- relative viability (HOP-62; first compound 0.006325 µM): 1.08
- relative viability (HOP-62; first compound 0.02 µM): 0.695
- relative viability (HOP-62; first compound 0.06325 µM): 0.762
- relative viability (HOP-62; first compound 0.2 µM): 0.0994
- relative viability (NCI-H1395; first compound 0.002 µM): 1.04
- relative viability (NCI-H1395; first compound 0.006325 µM): 0.996
- relative viability (NCI-H1395; first compound 0.02 µM): 0.645
- relative viability (NCI-H1395; first compound 0.06325 µM): 0.336
- relative viability (NCI-H1395; first compound 0.2 µM): 0.347
- relative viability (HCC-78; first compound 0.002 µM): 0.572
- relative viability (HCC-78; first compound 0.06325 µM): 1.32
- relative viability (HCC-78; first compound 0.2 µM): 1.27
- relative viability (LOU-NH91; first compound 0.002 µM): 0.791
- relative viability (LOU-NH91; first compound 0.006325 µM): 0.833
- relative viability (LOU-NH91; first compound 0.02 µM): 0.588
- relative viability (LOU-NH91; first compound 0.06325 µM): 0.338
- relative viability (LOU-NH91; first compound 0.2 µM): 0.342
- relative viability (NCI-H2126; first compound 0.002 µM): 0.798
- relative viability (NCI-H2126; first compound 0.006325 µM): 0.776
- relative viability (NCI-H2126; first compound 0.02 µM): 0.582
- relative viability (NCI-H2126; first compound 0.06325 µM): 0.647
- relative viability (NCI-H2126; first compound 0.2 µM): 0.526
- relative viability (NCI-H1793; first compound 0.002 µM): 0.697
- relative viability (NCI-H1793; first compound 0.006325 µM): 0.832
- relative viability (NCI-H1793; first compound 0.02 µM): 0.223
- relative viability (NCI-H1793; first compound 0.06325 µM): 0.167
- relative viability (NCI-H1793; first compound 0.2 µM): 0.177
- relative viability (SK-LU-1; first compound 0.002 µM): 0.905
- relative viability (SK-LU-1; first compound 0.006325 µM): 0.469
- relative viability (SK-LU-1; first compound 0.02 µM): 0.424
- relative viability (SK-LU-1; first compound 0.06325 µM): 0.164
- relative viability (SK-LU-1; first compound 0.2 µM): 0.133
- relative viability (NCI-H1355; first compound 0.002 µM): 0.891
- relative viability (NCI-H1355; first compound 0.006325 µM): 1.02
- relative viability (NCI-H1355; first compound 0.02 µM): 0.461
- relative viability (NCI-H1355; first compound 0.06325 µM): 0.664
- relative viability (NCI-H1355; first compound 0.2 µM): 0.153
- relative viability (CAL-12T; first compound 0.002 µM): 0.596
- relative viability (CAL-12T; first compound 0.006325 µM): 0.644
- relative viability (CAL-12T; first compound 0.02 µM): 0.309
- relative viability (CAL-12T; first compound 0.06325 µM): 0.183
- relative viability (CAL-12T; first compound 0.2 µM): 0.158
- relative viability (NCI-H322M; first compound 0.002 µM): 0.556
- relative viability (NCI-H322M; first compound 0.006325 µM): 0.573
- relative viability (NCI-H322M; first compound 0.02 µM): 0.503
- relative viability (NCI-H322M; first compound 0.06325 µM): 0.708
- relative viability (NCI-H322M; first compound 0.2 µM): 0.373

Reference: the supplement of paper PMC10307832
